Source: patent publication US12723063B2, “GIPR-agonist compounds” (Eli Lilly and Company, priority 2019, dated 2026)
pKi: −log10 of the molar value.

What was measured:
human GcgR = molecular target: T1, human GcgR (Homo sapiens, UniProt P47871); assay: [125I]-Glucagon binding, SPA with WGA beads, 0.1% bacitracin; details: geometric mean, read-out: hGcgR Ki
T1 construct: expressed in transfected cells; crude membranes
How it was run: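 SPA competition binding with WGA beads on crude membranes from HEK293 cells stably expressing hGcgR. Buffer: 25 mM HEPES pH 7.4, 2.5 mM CaCl2, 1 mM MgCl2, 0.1% bacitracin, 0.003% Tween-20; 10-point 3-fold dilutions, NSB with 1 μM Gcg.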

human GLP-1R = molecular target: T2, human GLP-1R (Homo sapiens, UniProt P43220); assay: [125I]-GLP-1 binding, SPA with WGA beads, 0.1% bacitracin; details: geometric mean, read-out: hGLP1R Ki
T2 construct: expressed in transfected cells; crude membranes
T2 sequence (P43220 24-463): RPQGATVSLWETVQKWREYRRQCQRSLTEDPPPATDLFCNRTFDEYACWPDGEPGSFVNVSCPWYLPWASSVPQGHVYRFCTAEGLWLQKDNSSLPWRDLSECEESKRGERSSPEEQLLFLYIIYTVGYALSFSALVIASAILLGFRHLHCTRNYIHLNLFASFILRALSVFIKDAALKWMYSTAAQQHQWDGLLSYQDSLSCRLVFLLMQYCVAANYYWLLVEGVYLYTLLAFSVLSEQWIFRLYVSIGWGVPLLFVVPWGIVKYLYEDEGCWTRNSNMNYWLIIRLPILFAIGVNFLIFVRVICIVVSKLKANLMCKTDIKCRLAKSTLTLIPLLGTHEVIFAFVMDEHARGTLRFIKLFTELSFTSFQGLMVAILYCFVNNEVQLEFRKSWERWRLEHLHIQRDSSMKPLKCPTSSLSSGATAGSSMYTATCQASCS
How it was run: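 Binding buffer was 25 mM HEPES pH 7.4 with 2.5 mM CaCl2, 1 mM MgCl2, 0.1% (w/v) bacitracin, 0.003% Tween-20 and EDTA-free protease inhibitors. Four-parameter regression gave IC50, converted to Ki (geometric mean, SEM, n independent days).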

[1] = Pharmacokinetics in male cynomolgus monkeys, single subcutaneous administration; type: in vivo, cynomolgus monkey; details: 50 nmol/kg single SC, mean n = 2; for CL/F / Tmax / half-life: cynomolgus monkey, plasma
Procedure: The pharmacokinetics of select Examples are evaluated following a single subcutaneous administration of 50 nmol/kg to male cynomolgus monkeys. Blood samples are collected over 504 hours and resulting individual plasma concentrations are used to calculate pharmacokinetic parameters. Peptide plasma (K3 EDTA) concentrations are determined using a qualified LC/MS method that measured the intact mass of the compound. Each peptide and an analog as an internal standard are extracted from 100% cynomolgus monkey plasma using a protein precipitation method. Instruments are combined for LC/MS detection.

[2] = tested on: CD4+ T cells (CD8+ T cell-depleted PBMCs); assay: CD4+ T cell proliferation assay (immunogenicity assessment); type: cell-based, human; details: 0.33 μM, 7 days, 10 healthy donors; positive response CDI>2.5
Procedure: Protein therapeutics that induce less than 30% positive response in the CD4+ T cell proliferation assay are associated with a low risk of immunogenicity. Briefly, to assess the propensity for a clinical immunogenic response to the compounds of Examples 1, 2, 3, 5, and 6, CD8+ T cell-depleted peripheral blood mononuclear cells (PBMCs) are prepared and labeled with carboxyfluorescein diacetate succinimidyl ester (CFSE; Invitrogen) from a cohort of 10 healthy donors with diverse human leukocyte antigen (HLA) class II haplotypes. Each donor is tested in triplicate with 2.0 mL media control, keyhole limpet hemocyanin (KLH: 0.33 μM), and the compounds of Examples 1, 2, 3, 5, and 6 (0.33 μM). Cultures are incubated for 7 days at 37° C. with 5% CO2. On day 7, samples are analyzed by flow cytometry using a BD LSR II Fortessa (Becton Dickinson; Franklin Lakes, NJ), equipped with a high throughput sampler (HTS). Data is analyzed using FlowJo® Software (FlowJo, LLC/TreeStar; Ashland, OR).
• Cell Division Index (“CDI”): proportion of divided CD4+ T cells to the total number of CD4+ T cells in stimulated versus unstimulated samples.

T1 sequence (P47871 26-477): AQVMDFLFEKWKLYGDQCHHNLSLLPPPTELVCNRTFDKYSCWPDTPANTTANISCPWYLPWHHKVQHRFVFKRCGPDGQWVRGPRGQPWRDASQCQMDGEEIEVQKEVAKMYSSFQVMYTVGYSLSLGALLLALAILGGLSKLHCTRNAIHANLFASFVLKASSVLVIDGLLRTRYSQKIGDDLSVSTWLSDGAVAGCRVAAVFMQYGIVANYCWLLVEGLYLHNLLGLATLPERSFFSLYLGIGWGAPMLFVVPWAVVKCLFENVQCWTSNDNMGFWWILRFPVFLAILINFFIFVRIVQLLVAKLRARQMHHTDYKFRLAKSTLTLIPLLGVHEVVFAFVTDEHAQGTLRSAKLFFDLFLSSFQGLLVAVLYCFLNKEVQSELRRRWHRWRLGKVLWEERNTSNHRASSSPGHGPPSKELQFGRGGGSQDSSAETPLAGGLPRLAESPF

Which results are given for `CC[C@H](C)[C@H](NC(=O)[C@H](CO)NC(=O)[C@H](Cc1ccc(O)cc1)NC(=O)[C@H](CC(=O)O)NC(=O)[C@H](CO)NC(=O)[C@@H](NC(=O)[C@H](Cc1ccccc1)NC(=O)[C@@H](NC(=O)CNC(=O)[C@H](CCC(=O)O)NC(=O)[C@@H](C)NC(=O)[C@@H](N)Cc1ccc(O)cc1)[C@@H](C)O)[C@@H](C)CC)C(=O)N[C@@H](CC(C)C)C(=O)N[C@@H](CC(C)C)C(=O)N[C@@H](CC(=O)O)C(=O)N[C@@H](CCCCN)C(=O)N[C@@H](CCCCNC(=O)COCCOCCNC(=O)COCCOCCNC(=O)CC[C@H](NC(=O)CCCCCCCCCCCCCCCCC(=O)O)C(=O)O)C(=O)N[C@@H](C)C(=O)N[C@@H](CCC(N)=O)C(=O)NC(C)(C)C(=O)N[C@@H](CC(=O)O)C(=O)N[C@@H](Cc1ccccc1)C(=O)N[C@H](C(=O)N[C@@H](CC(N)=O)C(=O)N[C@@H](Cc1c[nH]c2ccccc12)C(=O)N[C@@H](CC(C)C)C(=O)N[C@@H](CC(C)C)C(=O)N[C@@H](C)C(=O)N[C@@H](CCC(N)=O)C(=O)NCC(=O)N1CCC[C@H]1C(=O)N[C@@H](CO)C(=O)N[C@@H](CO)C(=O)NCC(=O)N[C@@H](C)C(=O)N1CCC[C@H]1C(=O)N1CCC[C@H]1C(=O)N1CCC[C@H]1C(=O)N[C@@H](CO)C(N)=O)C(C)C` [Example 2]?
pKi (human GcgR): 6.42; pKi (human GLP-1R): 7.11; AUCInf/Dose [1]: 624 hr*kg*nmol/L/nmol; Cmax/Dose [1]: 6.92 kg*nmol/L/nmol; CL/F [1]: 38.6 mL/day/kg; Tmax [1]: 6 h; half-life [1]: 51.8 h; % Donor Response (n = 10) [2]: 10%

With `CC[C@H](C)[C@H](NC(=O)[C@H](Cc1ccccc1)NC(=O)[C@@H](NC(=O)CNC(=O)[C@H](CCC(=O)O)NC(=O)C(C)(C)NC(=O)[C@@H](N)Cc1ccc(O)cc1)[C@@H](C)O)C(=O)N[C@@H](CO)C(=O)N[C@@H](CC(=O)O)C(=O)N[C@@H](Cc1ccc(O)cc1)C(=O)N[C@@H](CO)C(=O)N[C@H](C(=O)N[C@@](C)(CC(C)C)C(=O)N[C@@H](CC(C)C)C(=O)N[C@@H](CC(=O)O)C(=O)N[C@@H](CCCCN)C(=O)N[C@@H](CCCCNC(=O)COCCOCCNC(=O)COCCOCCNC(=O)CC[C@H](NC(=O)CCCCCCCCCCCCCCCCCCC(=O)O)C(=O)O)C(=O)N[C@@H](Cc1c[nH]cn1)C(=O)N[C@@H](CCC(N)=O)C(=O)NC(C)(C)C(=O)N[C@@H](CC(=O)O)C(=O)N[C@@H](Cc1ccccc1)C(=O)N[C@H](C(=O)N[C@@H](CCC(=O)O)C(=O)N[C@@H](Cc1ccncc1)C(=O)N[C@@H](CC(C)C)C(=O)N[C@@H](CC(C)C)C(=O)N[C@@H](CCC(=O)O)C(=O)N[C@@H](C)C(=O)NCC(=O)N1CCC[C@H]1C(=O)N[C@@H](CO)C(=O)N[C@@H](CO)C(=O)NCC(=O)N[C@@H](C)C(=O)N1CCC[C@H]1C(=O)N1CCC[C@H]1C(=O)N1CCC[C@H]1C(=O)N[C@@H](CO)C(N)=O)C(C)C)[C@@H](C)CC` [Example 3] as the compound, how does the pKi (human GcgR) read?
Its pKi is 6.47.

And the pKi (human GLP-1R)?
The pKi was 6.42.

What about the AUCInf/Dose [1] of the same compound?
The AUCInf/Dose was 1764 hr*kg*nmol/L/nmol.

And the Cmax/Dose [1]?
Its Cmax/Dose is 12.1 kg*nmol/L/nmol.

What about the CL/F [1] of the same compound?
The CL/F was 13.7 mL/day/kg.

And the Tmax [1]?
Its Tmax is 60 h.

And the half-life [1]?
Its half-life is 88.8 h.

What about the “% Donor Response (n = 10)” value [2] of the same compound?
The value was 0%.

What does the source list for `CC[C@H](C)[C@H](NC(=O)[C@H](CCCCN)NC(=O)[C@H](CC(=O)O)NC(=O)[C@H](CC(C)C)NC(=O)[C@](C)(CC(C)C)NC(=O)[C@@H](NC(=O)[C@H](CO)NC(=O)[C@H](Cc1ccc(O)cc1)NC(=O)[C@H](CC(=O)O)NC(=O)[C@H](CO)NC(=O)[C@@H](NC(=O)[C@H](Cc1ccccc1)NC(=O)[C@@H](NC(=O)CNC(=O)[C@H](CCC(=O)O)NC(=O)C(C)(C)NC(=O)[C@@H](N)Cc1ccc(O)cc1)[C@@H](C)O)[C@@H](C)CC)[C@@H](C)CC)C(=O)N[C@@H](Cc1c[nH]cn1)C(=O)N[C@@H](CCC(N)=O)C(=O)NC(C)(C)C(=O)N[C@@H](CC(=O)O)C(=O)N[C@@H](Cc1ccccc1)C(=O)N[C@H](C(=O)N[C@@H](CCC(=O)O)C(=O)N[C@@H](Cc1ccc(O)cc1)C(=O)N[C@@H](CCCCNC(=O)COCCOCCNC(=O)COCCOCCNC(=O)CC[C@H](NC(=O)CCCCCCCCCCCCCCCCCCC(=O)O)C(=O)O)C(=O)N[C@@H](CC(C)C)C(=O)N[C@@H](CCC(=O)O)C(=O)NCC(=O)NCC(=O)N1CCC[C@H]1C(=O)N[C@@H](CO)C(=O)N[C@@H](CO)C(=O)NCC(=O)N[C@@H](C)C(=O)N1CCC[C@H]1C(=O)N1CCC[C@H]1C(=O)N1CCC[C@H]1C(=O)N[C@@H](CO)C(N)=O)C(C)C` [Example 5]?
pKi (human GcgR): 6.21; pKi (human GLP-1R): < 6.04; AUCInf/Dose [1]: 2262 hr*kg*nmol/L/nmol; Cmax/Dose [1]: 12.0 kg*nmol/L/nmol; CL/F [1]: 10.6 mL/day/kg; Tmax [1]: 120 h; half-life [1]: 128 h; % Donor Response (n = 10) [2]: 0%

Which results are given for `CC[C@H](C)[C@H](NC(=O)[C@H](CCCN)NC(=O)[C@H](CC(=O)O)NC(=O)[C@H](CC(C)C)NC(=O)[C@](C)(CC(C)C)NC(=O)[C@@H](NC(=O)[C@H](CO)NC(=O)[C@H](Cc1ccc(O)cc1)NC(=O)[C@H](CC(=O)O)NC(=O)[C@H](CO)NC(=O)[C@@H](NC(=O)[C@H](Cc1ccccc1)NC(=O)[C@@H](NC(=O)CNC(=O)[C@H](CCC(=O)O)NC(=O)C(C)(C)NC(=O)[C@@H](N)Cc1ccc(O)cc1)[C@@H](C)O)[C@@H](C)CC)[C@@H](C)CC)C(=O)N[C@@H](Cc1c[nH]cn1)C(=O)N[C@@H](CCC(N)=O)C(=O)NC(C)(C)C(=O)N[C@@H](CC(=O)O)C(=O)N[C@@H](Cc1ccccc1)C(=O)N[C@H](C(=O)N[C@@H](CCC(=O)O)C(=O)N[C@@H](Cc1ccc(O)cc1)C(=O)N[C@@H](CCCCNC(=O)COCCOCCNC(=O)COCCOCCNC(=O)CC[C@H](NC(=O)CCCCCCCCCCCCCCCCCCC(=O)O)C(=O)O)C(=O)N[C@@H](CC(C)C)C(=O)N[C@@H](CCC(=O)O)C(=O)NCC(=O)NCC(=O)N1CCC[C@H]1C(=O)N[C@@H](CO)C(=O)N[C@@H](CO)C(=O)NCC(=O)N[C@@H](C)C(=O)N1CCC[C@H]1C(=O)N1CCC[C@H]1C(=O)N1CCC[C@H]1C(=O)N[C@@H](CO)C(N)=O)C(C)C` [Example 6]?
pKi (human GcgR): 6.34; pKi (human GLP-1R): 6.24; AUCInf/Dose [1]: 1382 hr*kg*nmol/L/nmol; Cmax/Dose [1]: 7.83 kg*nmol/L/nmol; CL/F [1]: 18.5 mL/day/kg; Tmax [1]: 6 h; half-life [1]: 129 h; % Donor Response (n = 10) [2]: 0%
